Results as given in ChEMBL document CHEMBL3233007, “Prenylated coumarins: natural phosphodiesterase-4 inhibitors from Toddalia asiatica” (J Nat Prod, 2014).

Molecular target: 3',5'-cyclic-AMP phosphodiesterase 4D (Homo sapiens, UniProt Q08499)
Test: Inhibition of human PDE4D2 catalytic domain (86 to 413aa) expressed in Escherichia coli strain BL21 after 15 mins by liquid scintillation counting in presence of [3H]-cAMP

3',5'-cyclic-AMP phosphodiesterase 4D, sequence (Q08499 whole entry, the tested form may be a part): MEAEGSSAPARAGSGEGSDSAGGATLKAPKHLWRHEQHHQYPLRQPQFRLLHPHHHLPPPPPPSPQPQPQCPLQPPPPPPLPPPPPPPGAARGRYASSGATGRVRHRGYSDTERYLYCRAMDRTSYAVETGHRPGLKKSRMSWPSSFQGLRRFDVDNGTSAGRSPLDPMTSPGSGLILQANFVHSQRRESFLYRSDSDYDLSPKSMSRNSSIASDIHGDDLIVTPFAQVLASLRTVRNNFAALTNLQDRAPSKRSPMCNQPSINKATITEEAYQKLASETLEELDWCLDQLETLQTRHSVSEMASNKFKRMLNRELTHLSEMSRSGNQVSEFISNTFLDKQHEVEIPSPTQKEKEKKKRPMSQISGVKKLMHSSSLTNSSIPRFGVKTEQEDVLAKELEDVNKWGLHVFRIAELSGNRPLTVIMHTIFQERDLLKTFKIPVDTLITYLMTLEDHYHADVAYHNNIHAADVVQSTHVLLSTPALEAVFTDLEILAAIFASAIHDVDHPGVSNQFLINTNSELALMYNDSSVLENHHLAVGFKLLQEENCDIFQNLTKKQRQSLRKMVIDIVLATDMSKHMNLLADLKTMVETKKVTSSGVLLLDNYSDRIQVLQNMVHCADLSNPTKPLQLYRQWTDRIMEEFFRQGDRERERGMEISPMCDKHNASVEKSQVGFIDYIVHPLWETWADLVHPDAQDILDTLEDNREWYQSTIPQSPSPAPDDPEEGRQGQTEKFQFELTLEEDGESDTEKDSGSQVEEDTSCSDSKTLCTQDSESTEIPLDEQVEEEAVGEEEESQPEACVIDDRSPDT

Structure (SMILES)	IC50 [µM]
COc1cc2oc(=O)ccc2c(OC)c1C[C@H](OC(=O)[C@]1(O)C[C@@H](O)[C@@H](O)[C@H](OC(=O)/C=C/c2ccc(O)c(O)c2)C1)C(C)(C)O	16.7
COc1cc(O)c(/C=C/C(=O)O[C@@H](Cc2c(OC)cc3oc(=O)ccc3c2OC)C(C)(C)O)c(OC)c1CC=C(C)C	7.81
COc1cc2oc(=O)ccc2c(OC)c1CC=C(C)C	9.98
COc1cc2oc(=O)ccc2c(OC)c1CCC(C)C	11.5
COc1cc(OC)c2ccc(=O)oc2c1CC=C(C)C	6.82
COc1cc(OC)c2ccc(=O)oc2c1CCC(C)C	10.2

The next molecules have a lower IC50 than those just listed; values first:

IC50 [µM]	Structure (SMILES)
0.14	COc1cc(OC)c2ccc(=O)oc2c1/C=C/[C@H]1C[C@@H](C=C(C)C)c2c(c3ccccc3n(C)c2=O)O1
2.2	COc1cc2c(c3oc(=O)ccc13)CCC(C)(C)O2
1.53	COc1cc2ccc(=O)oc2c2c1OC(C)(C)CC2
2.38	CC1(C)C=Cc2c(c(O)cc3ccc(=O)oc23)O1
5.51	COC1=CC(=O)c2cc(C)cc(-c3c(OC)cc(OC)c4ccc(=O)oc34)c2C1=O
1.87	COc1cc2c(c3oc(=O)ccc13)C=CC(C)(C)O2
